Patent US20210317140A1, “Heterocyclic Compounds and Methods of Use” (MEDIVATION TECHNOLOGIES, INC, priority 2013, published 2021)

Experiments:
PI3Kβ = biological target: T1, PI3Kβ (Homo sapiens, UniProt P42338); test: PI3Kβ isoform profiling (PI3Kδ protocol); type: biochemical; details: for PI3Kβ @ 0.3 μM (% Inh): 0.3 μM compound
T1 construct: purchased Reaction Biology Corporation
From the text: PI3Kδ assay: The PIP3 product is detected by displacement of biotin-PIP3 from an energy transfer complex consisting of Europium labeled anti-GST monoclonal antibody, a GST-tagged pleckstrin homology (PH) domain, biotinylated PIP3 and Streptavidin-Allophycocyanin (APC). Excitation of Europium in the complex results in an energy transfer to the APC and a fluorescent emission at 665 nm. The PIP3 product formed by PI 3-Kinase(h) activity displaces biotin-PIP3 from the complex resulting in a loss of energy transfer and thus a decrease in signal. This is a 3-step reaction: First, the kinase reaction with PIP2 substrate is carried out in the presence of ATP (10 μM), and the reaction is quenched with stop Solution, and then finally detect by adding Detection Mixture followed by incubation (10 min). Reaction procedure: 1) Prepare substrate in freshly prepared Reaction Buffer. 2) Deliver kinase into the substrate solution and gently mix. 3) Deliver compounds in 100% DMSO (1 μM) into the kinase reaction mixture by Acoustic technology (Echo550; nanoliter range), incubate for 10 min at RT. 4) Deliver ATP into the reaction mixture to initiate the reaction. 5) Incubate for 30 min at 30° C. 6) Quench the reaction with Stop Solution. 7) Add Detection Mixture, and incubate for overnight. 8) Measure HTRF: Ex=320 nm, ratio of Em=615 nm and Em=665 nm. The emission ratio is converted into μM PIP3 production based on PIP3 standard curves. The nonlinear regression to obtain the standard curve and IC50 values are performed using Graphpad Prism software. Assay Buffer: HEPES 50 mM (pH7.0), NaN3 0.02%, BSA 0.01%, Orthovanadate 0.1 mM, 1% DMSO. Detection buffer: HEPES 10 mM (pH7.0), BSA 0.02%, KF 0.16 M, EDTA 4 mM. Substrate: 10 μM PIP2 substrate (PI(4,5)P2).
Compounds of the invention were profiled in a 10 dose IC50 panel against PI3Kα, PI3Kβ, and PI3Kγ kinases, provided by Reaction Biology Corporation, applied to the PI3Kδ protocol provided in Example B1.

TEC = biological target: T2, TEC (Homo sapiens, UniProt P42680); test: TEC kinase profiling (BTK protocol); type: biochemical; details: for TEC @ 0.3 μM (% Inh): 0.3 μM compound
T2 construct: purchased Reaction Biology Corporation
T2 sequence (P42680 1-631): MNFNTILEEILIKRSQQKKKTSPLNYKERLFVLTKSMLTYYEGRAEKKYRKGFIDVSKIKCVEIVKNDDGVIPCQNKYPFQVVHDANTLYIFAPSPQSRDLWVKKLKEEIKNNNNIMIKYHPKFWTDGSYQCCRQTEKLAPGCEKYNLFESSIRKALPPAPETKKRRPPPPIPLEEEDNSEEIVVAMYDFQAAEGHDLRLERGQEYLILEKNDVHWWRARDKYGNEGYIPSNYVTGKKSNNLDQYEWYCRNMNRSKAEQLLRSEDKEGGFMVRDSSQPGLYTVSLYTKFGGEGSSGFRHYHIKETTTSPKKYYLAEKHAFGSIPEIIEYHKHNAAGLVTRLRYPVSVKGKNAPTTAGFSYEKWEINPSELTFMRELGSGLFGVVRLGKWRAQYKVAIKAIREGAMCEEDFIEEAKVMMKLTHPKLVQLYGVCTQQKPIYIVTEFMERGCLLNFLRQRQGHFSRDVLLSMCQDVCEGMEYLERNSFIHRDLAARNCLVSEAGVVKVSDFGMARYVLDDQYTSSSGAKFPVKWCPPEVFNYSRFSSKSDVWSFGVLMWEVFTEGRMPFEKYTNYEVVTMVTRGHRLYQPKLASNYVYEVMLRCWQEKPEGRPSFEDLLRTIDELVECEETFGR
Experimental: BTK assay: In vitro profiling protein kinases was performed using the “HotSpot” assay platform. Briefly, specific kinase/substrate pairs along with required cofactors were prepared in reaction buffer. Compounds were prepared as 10 mM stock solutions in DMSO. Compounds were delivered into the reaction, followed 15-20 minutes later by addition of a mixture of ATP (Sigma, St. Louis Mo.) and ^33P ATP (Perkin Elmer, Waltham Mass.) to a final concentration of 10 μM. […] IC50 values and curve fits were obtained using Prism (GraphPad Software). Buffer Conditions: 20 mM Hepes (pH 7.5), 10 mM MgCl2, 1 mM EGTA, 0.02% Brij35, 0.02 mg/mL BSA, 0.1 mM Na3VO4, 2 mM DTT, 1% DMSO.

CD69+B220+ cells = test: B cell activation assay (IgD-stimulated splenocytes, CD69+B220+ cells by FACS); type: cell-based; details: IgD 3 μg/mL, 4 h; for CD69 @ 100 nM (% Inh): 100 nM compound; for IC50: Splenocyte
Summary of the method: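 Mouse splenocytes (female, ~2 months), red cells lysed, at 10^6 cells/mL, pretreated 30 min at 37 °C with 100 nM compound, then anti-IgD 3 μg/mL for 4 h. Read as CD69+B220+ cells as percentage of live B220+ cells by flow cytometry.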

T1 sequence (P42338 whole entry, canonical isoform): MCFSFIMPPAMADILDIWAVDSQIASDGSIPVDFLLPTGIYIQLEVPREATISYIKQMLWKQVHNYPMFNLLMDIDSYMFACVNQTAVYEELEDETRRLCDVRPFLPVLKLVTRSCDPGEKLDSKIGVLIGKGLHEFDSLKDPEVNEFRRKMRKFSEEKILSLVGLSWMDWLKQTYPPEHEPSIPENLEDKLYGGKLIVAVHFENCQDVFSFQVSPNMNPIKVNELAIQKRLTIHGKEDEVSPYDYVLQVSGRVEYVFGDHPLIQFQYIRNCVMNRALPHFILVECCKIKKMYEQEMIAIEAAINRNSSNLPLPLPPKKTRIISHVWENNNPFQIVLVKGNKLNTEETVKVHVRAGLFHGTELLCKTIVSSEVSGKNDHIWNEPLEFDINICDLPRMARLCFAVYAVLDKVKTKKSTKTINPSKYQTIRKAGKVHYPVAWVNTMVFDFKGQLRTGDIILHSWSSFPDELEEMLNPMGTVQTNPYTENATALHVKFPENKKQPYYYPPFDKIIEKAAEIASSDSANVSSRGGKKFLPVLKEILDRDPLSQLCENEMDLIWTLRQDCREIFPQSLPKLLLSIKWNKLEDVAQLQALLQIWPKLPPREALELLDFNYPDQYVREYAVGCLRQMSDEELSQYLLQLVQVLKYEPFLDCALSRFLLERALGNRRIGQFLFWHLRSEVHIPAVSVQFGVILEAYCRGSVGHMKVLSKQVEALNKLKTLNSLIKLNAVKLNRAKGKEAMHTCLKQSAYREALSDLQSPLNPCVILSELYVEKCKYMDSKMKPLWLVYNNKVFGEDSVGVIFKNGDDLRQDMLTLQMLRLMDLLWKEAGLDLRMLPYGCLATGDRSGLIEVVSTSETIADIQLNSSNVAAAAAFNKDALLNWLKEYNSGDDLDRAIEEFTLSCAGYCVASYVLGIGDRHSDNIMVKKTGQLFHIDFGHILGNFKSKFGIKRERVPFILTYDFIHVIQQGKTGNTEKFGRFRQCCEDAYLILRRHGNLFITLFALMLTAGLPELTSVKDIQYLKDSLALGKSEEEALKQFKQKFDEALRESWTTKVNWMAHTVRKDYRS
T1 sequence (P27986 whole entry partner, canonical isoform): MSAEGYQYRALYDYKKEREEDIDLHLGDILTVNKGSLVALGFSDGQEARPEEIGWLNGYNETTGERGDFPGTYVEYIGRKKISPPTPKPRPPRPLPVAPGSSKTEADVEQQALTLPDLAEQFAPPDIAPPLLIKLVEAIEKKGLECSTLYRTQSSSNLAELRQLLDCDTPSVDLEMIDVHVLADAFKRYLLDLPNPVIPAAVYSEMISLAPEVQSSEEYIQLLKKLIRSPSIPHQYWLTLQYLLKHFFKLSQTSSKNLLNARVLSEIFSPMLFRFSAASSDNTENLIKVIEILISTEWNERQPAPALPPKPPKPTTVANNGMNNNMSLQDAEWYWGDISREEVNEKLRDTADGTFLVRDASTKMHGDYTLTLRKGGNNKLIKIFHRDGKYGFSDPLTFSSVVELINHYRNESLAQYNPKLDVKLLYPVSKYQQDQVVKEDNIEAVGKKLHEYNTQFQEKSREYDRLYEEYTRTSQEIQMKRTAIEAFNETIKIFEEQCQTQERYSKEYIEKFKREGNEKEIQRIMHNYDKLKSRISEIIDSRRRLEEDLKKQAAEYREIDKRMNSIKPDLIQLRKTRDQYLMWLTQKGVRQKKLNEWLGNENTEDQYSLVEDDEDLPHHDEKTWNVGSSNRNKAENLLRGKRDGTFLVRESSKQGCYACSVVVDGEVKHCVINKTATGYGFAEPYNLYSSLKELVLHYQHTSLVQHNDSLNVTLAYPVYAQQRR

SMILES	PI3Kβ @ 0.3 μM (% Inh) (PI3Kβ)	TEC @ 0.3 μM (% Inh) (TEC)	CD69 @ 100 nM (% Inh) (CD69+B220+ cells; mouse splenocytes)	IC50 (CD69+B220+ cells; mouse splenocytes) [nM]	IC50 (PI3Kβ; 10 dose IC50) [nM]	IC50 (TEC; 10 dose IC50) [nM]	IC50 (CD69+B220+ cells; Mus musculus) [nM]
Nc1ncnc2c1c(-c1ccc(Cl)c(O)c1)cn2C1Cc2ccccc2C1 [Compound No. 93, 5-[4-amino-7-(2,3-dihydro-1H-inden-2-yl)-7H-pyrrolo[2,3-d]pyrimidin-5-yl]-2-chlorophenol]	47.09	106.37	−19.68 ± 39.78 (n = 5) % Inh				
Nc1ncnc2c1c(-c1ccc(Cl)c(O)c1F)nn2C1Cc2ccccc2C1 [Compound No. 100, 3-[4-amino-1-(2,3-dihydro-1H-inden-2-yl)-1H-pyrazolo[3,4-d]pyrimidin-3-yl]-6-chloro-2-fluorophenol]	39.8	102.76	27.39 ± 22.07 (n = 5) % Inh				
Nc1ncnc2c1c(-c1cc(O)c(F)c(F)c1)cn2C1Cc2ccccc2C1 [Compound No. 101, 5-[4-amino-7-(2,3-dihydro-1H-inden-2-yl)-7H-pyrrolo[2,3-d]pyrimidin-5-yl]-2,3-difluorophenol]	41.93	91.2	−12.35 ± 33.92 (n = 5) % Inh				
Nc1ncnc2c1c(-c1cc(O)c(F)c(C(F)(F)F)c1)nn2C1Cc2ccccc2C1 [Compound No. 102, 5-[4-amino-1-(2,3-dihydro-1H-inden-2-yl)-1H-pyrazolo[3,4-d]pyrimidin-3-yl]-2-fluoro-3-(trifluoromethyl)phenol]	67.67	−3.89	81.06 ± 20.76 (n = 7) % Inh	191 ± 120			
Nc1ncnc2c1c(-c1cc(O)c(Cl)c(Cl)c1)cn2C1Cc2ccccc2C1 [Compound No. 107, 5-[4-amino-7-(2,3-dihydro-1H-inden-2-yl)-7H-pyrrolo[2,3-d]pyrimidin-5-yl]-2,3-dichlorophenol]	49.12	87.72	−0.20 ± 16.10 (n = 3) % Inh				
Nc1ncnc2c1c(-c1cc(O)cc(F)c1)nn2C1Cc2ccccc2C1 [compound 3, 3-(4-amino-1-(2,3-dihydro-1H-inden-2-yl)-1H-pyrazolo[3,4-d]pyrimidin-3-yl)-5-fluorophenol]			77.66 ± 22.65 (n = 6) % Inh		90.8	182	183 ± 172
Nc1ncnc2c1c(-c1cc(O)cc(F)c1)nn2C1Cc2ccc(F)cc2C1 (stereo not drawn) [compound 57, 3-[4-amino-1-(5-fluoro-2,3-dihydro-1H-inden-2-yl)-1H-pyrazolo[3,4-d]pyrimidin-3-yl]-5-fluorophenol]	60.98	40.21	64.26 ± 21.20 (n = 6) % Inh	117 ± 83.6			
Nc1ncnc2c1c(-c1cc(O)c(F)c(Cl)c1)cn2C1Cc2ccccc2C1 [compound 110, 5-[4-amino-7-(2,3-dihydro-1H-inden-2-yl)-7H-pyrrolo[2,3-d]pyrimidin-5-yl]-3-chloro-2-fluorophenol]	50.12	89.37	−11.51 ± 15.89 (n = 3) % Inh				
N#Cc1cc(-c2cn(C3Cc4ccccc4C3)c3ncnc(N)c23)cc(O)c1F [compound 115, 5-[4-amino-7-(2,3-dihydro-1H-inden-2-yl)-7H-pyrrolo[2,3-d]pyrimidin-5-yl]-2-fluoro-3-hydroxybenzonitrile]	68.12	48.29	44.51 ± 5.23 (n = 3) % Inh				
